{"source": "paper PMC7211198", "about": "“Phase 1b study of a small molecule antagonist of human chemokine (C-C motif) receptor 2 (PF-04136309) in combination with nab-paclitaxel/gemcitabine in first-line treatment of metastatic pancreatic ductal adenocarcinoma” (Investigational New Drugs, 2019)", "origin": "cited, not measured here", "test_system": "advanced pancreatic cancer", "settings": "cited from earlier work", "note": "Like-named read-outs stand apart in the source and are kept apart here."}
{"compound": "Nc1ccn([C@@H]2O[C@H](CO)[C@@H](O)C2(F)F)c(=O)n1", "note": "[gemcitabine]", "values": [{"measurement": "Observed rate of pneumonitis", "setting": "gemcitabine combined with nab-paclitaxel", "value": "up to 4%"}, {"measurement": "Observed rate of pneumonitis", "setting": "patients treated with gemcitabine", "value": "approximately 1%"}]}
